Test results as given in ChEMBL document CHEMBL1201862, “PubChem BioAssay data set” (2004).
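Results reflect a 48-hour exposure of cells in 96-well plates to compound at five concentrations. Abbreviation: GI50, concentration required for 50% inhibition of growth.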 Calls of active or inactive are those of the source. Rule as the data show it: active = GI50 up to about 1.1 µM and inactive = higher.

What was measured:
Test in all cases: DTP human tumour cell line panel, 48 h
CAKI-1 = tested on: CAKI-1
CCRF-CEM = tested on: CCRF-CEM
DU-145 = tested on: DU-145
HCT-116 = tested on: HCT-116
HL-60 = tested on: HL-60
IGROV-1 = tested on: IGROV-1
KM12 = tested on: KM12
M14 = tested on: M14
MDA-MB-231 = tested on: MDA-MB-231
NCI-H460 = tested on: NCI-H460
OVCAR-5 = tested on: OVCAR-5
RPMI-8226 = tested on: RPMI-8226
RXF 393 = tested on: RXF 393
SF-268 = tested on: SF-268
SF-539 = tested on: SF-539
SK-OV-3 = tested on: SK-OV-3
SN12C = tested on: SN12C
U-251 = tested on: U-251
UACC-257 = tested on: UACC-257
UO-31 = tested on: UO-31

Row | SMILES | GI50 (CAKI-1) | GI50 (CCRF-CEM) | GI50 (DU-145) | GI50 (HCT-116) | GI50 (HL-60) | GI50 (IGROV-1) | GI50 (KM12) | GI50 (M14) | GI50 (MDA-MB-231) | GI50 (NCI-H460) | GI50 (OVCAR-5) | GI50 (RPMI-8226) | GI50 (RXF 393) | GI50 (SF-268) | GI50 (SF-539) | GI50 (SK-OV-3) | GI50 (SN12C) | GI50 (U-251) | GI50 (UACC-257) | GI50 (UO-31)
1 | COc1ccc(/N=N\c2c(N)nn3c(SC)c(C#N)c(N)nc23)cc1 | 10.9 µM (inactive) | 2.02 µM (inactive) | 5.52 µM (inactive) | 7.74 µM (inactive) | 2.71 µM (inactive) | 1.82 µM (inactive) | 15.1 µM (inactive) | 12.6 µM (inactive) | 2.32 µM (inactive) | 15.8 µM (inactive) | 17.6 µM (inactive) | 2.92 µM (inactive) | 6.47 µM (inactive) | 3.21 µM (inactive) | 19 µM (inactive) | 19.5 µM (inactive) | 5.27 µM (inactive) | 5.43 µM (inactive) | 5.11 µM (inactive) | 12.4 µM (inactive)
2 | O=C(Nc1ccc(Cl)cc1)c1cc(S(=O)(=O)Nc2nc3cccnc3[nH]2)c(SSc2cc(Cl)c(C(=O)Nc3ccc(Cl)cc3)cc2S(=O)(=O)Nc2nc3cccnc3[nH]2)cc1Cl | > 100 µM (inactive) | > 100 µM (inactive) | > 100 µM (inactive) | > 100 µM (inactive) | > 100 µM (inactive) | > 100 µM (inactive) | > 100 µM (inactive) | > 100 µM (inactive) | > 100 µM (inactive) | > 100 µM (inactive) | > 100 µM (inactive) | > 100 µM (inactive) | 28.6 µM (inactive) | > 100 µM (inactive) | > 100 µM (inactive) | > 100 µM (inactive) | > 100 µM (inactive) | > 100 µM (inactive) | > 100 µM (inactive) | > 100 µM (inactive)
3 | COc1ncnc2c(NC3OC(CO)C(O)C3O)ncnc12 (configuration not stated) | 0.267 µM (active) | < 0.0209 µM (active) | 0.407 µM (active) | 0.0541 µM (active) | 0.0414 µM (active) | 0.28 µM (active) | 0.458 µM (active) | 0.296 µM (active) | 0.149 µM (active) | 0.279 µM (active) | 0.569 µM (active) | 0.371 µM (active) | 0.794 µM (active) | 0.506 µM (active) | 0.246 µM (active) | 0.525 µM (active) | 0.428 µM (active) | 2.51 µM (inactive) | 1.6 µM (inactive) | 0.984 µM (active)
4 | CS(=O)(=O)N1CC(CCl)c2ccc(NCCN)cc21 (configuration not stated) | 96.2 µM (inactive) | 79.8 µM (inactive) | > 100 µM (inactive) | 83.2 µM (inactive) | > 100 µM (inactive) | 12.5 µM (inactive) | > 100 µM (inactive) | > 100 µM (inactive) | 33.3 µM (inactive) | > 100 µM (inactive) | > 100 µM (inactive) | > 100 µM (inactive) | 35.4 µM (inactive) | 39.1 µM (inactive) | 72.6 µM (inactive) | 22.1 µM (inactive) | > 100 µM (inactive) | 27.7 µM (inactive) | > 100 µM (inactive) | > 100 µM (inactive)
5 | CC(=O)O[C@H]1CC[C@@]2(C)C(=CC[C@H]3[C@@H]4C/C(=C\c5ccncc5)[C@H](OC(C)=O)[C@@]4(C)CC[C@@H]32)C1 | 11.2 µM (inactive) | 3.35 µM (inactive) | 15.4 µM (inactive) | 11.9 µM (inactive) | 4.01 µM (inactive) | 11.6 µM (inactive) | 4.57 µM (inactive) | 10.9 µM (inactive) | 19.1 µM (inactive) | 10.1 µM (inactive) | 16.9 µM (inactive) | 2.46 µM (inactive) | 2.73 µM (inactive) | 10.9 µM (inactive) | 3.95 µM (inactive) | 21.6 µM (inactive) | 16.9 µM (inactive) | 10 µM (inactive) | 16.9 µM (inactive) | 8.04 µM (inactive)
6 | C[C@@H]1CC[C@@]2(OC1)O[C@H]1C[C@H]3[C@@H]4CC[C@H]5C[C@@H](OC6OC(CO)C(OC7OC(CO)C(O)C(OC8OCC(O)C(O)C8O)C7OC7OC(CO)C(O)C(O)C7O)C(O)C6O)[C@H](O)C[C@]5(C)[C@H]4CC[C@]3(C)[C@H]1[C@@H]2C (some centres not stated) | 2.21 µM (inactive) | 0.693 µM (active) | 2.42 µM (inactive) | 3.88 µM (inactive) | 1.49 µM (inactive) | 2.16 µM (inactive) | 8 µM (inactive) | 15.2 µM (inactive) | 1.76 µM (inactive) | 1.85 µM (inactive) | 4.76 µM (inactive) | 1.85 µM (inactive) | 9.98 µM (inactive) | 7.71 µM (inactive) | 2.69 µM (inactive) | 10.8 µM (inactive) | – | 3.13 µM (inactive) | 18.1 µM (inactive) | 4.52 µM (inactive)
7 | O=[N+]([O-])c1cccc2nc3ccccc3c(NCCCNc3c4ccccc4nc4cccc([N+](=O)[O-])c34)c12 | < 0.0215 µM (active) | 0.0251 µM (active) | < 0.0164 µM (active) | 0.0103 µM (active) | 0.12 µM (active) | 0.128 µM (active) | < 0.013 µM (active) | < 0.0177 µM (active) | < 0.0122 µM (active) | < 0.01 µM (active) | 0.0435 µM (active) | < 0.01 µM (active) | 0.0177 µM (active) | < 0.01 µM (active) | 0.0161 µM (active) | 0.0982 µM (active) | < 0.0169 µM (active) | 0.0171 µM (active) | 0.0556 µM (active) | 0.0472 µM (active)
8 | COc1ccc(C(C)NNC(=O)c2ccncc2)cc1F (configuration not stated) | > 100 µM (inactive) | > 100 µM (inactive) | > 100 µM (inactive) | > 100 µM (inactive) | > 100 µM (inactive) | > 100 µM (inactive) | > 100 µM (inactive) | > 100 µM (inactive) | > 100 µM (inactive) | > 100 µM (inactive) | > 100 µM (inactive) | > 100 µM (inactive) | > 100 µM (inactive) | > 100 µM (inactive) | > 100 µM (inactive) | > 100 µM (inactive) | > 100 µM (inactive) | > 100 µM (inactive) | > 100 µM (inactive) | > 100 µM (inactive)
9 | NC(=O)/C=C/NC(=O)/C=N\O | > 100 µM (inactive) | > 100 µM (inactive) | > 100 µM (inactive) | > 100 µM (inactive) | > 100 µM (inactive) | > 100 µM (inactive) | > 100 µM (inactive) | > 100 µM (inactive) | > 100 µM (inactive) | > 100 µM (inactive) | > 100 µM (inactive) | > 100 µM (inactive) | > 100 µM (inactive) | > 100 µM (inactive) | > 100 µM (inactive) | > 100 µM (inactive) | > 100 µM (inactive) | > 100 µM (inactive) | > 100 µM (inactive) | > 100 µM (inactive)
10 | C/C(Cl)=N\OC(=O)Nc1ccc([N+](=O)[O-])cc1 | 5.21 µM (inactive) | 2.77 µM (inactive) | 17.6 µM (inactive) | 7.94 µM (inactive) | 1.82 µM (inactive) | 17.5 µM (inactive) | 15.5 µM (inactive) | 12.9 µM (inactive) | 18.7 µM (inactive) | 18.7 µM (inactive) | 16.4 µM (inactive) | 2.36 µM (inactive) | 16.8 µM (inactive) | 21 µM (inactive) | 16.3 µM (inactive) | 13.3 µM (inactive) | 12.4 µM (inactive) | 17.6 µM (inactive) | 16.8 µM (inactive) | 5.6 µM (inactive)
11 | CN(C)c1cccc2c1C(=O)C=CC21c2ccc(N(C)C)c3c(N(C)C)ccc(c23)C(c2ccccc2)C1c1ccccc1 (configuration not stated) | 1.64 µM (inactive) | 4.86 µM (inactive) | 42.5 µM (inactive) | 21.3 µM (inactive) | 3.34 µM (inactive) | 12 µM (inactive) | 14.3 µM (inactive) | 16.7 µM (inactive) | 8.75 µM (inactive) | 24 µM (inactive) | 28.1 µM (inactive) | 15.9 µM (inactive) | 13 µM (inactive) | 12.9 µM (inactive) | 12.1 µM (inactive) | 11.4 µM (inactive) | 10.8 µM (inactive) | 10.5 µM (inactive) | 12.6 µM (inactive) | 4.8 µM (inactive)
12 | O=C(Nc1ccc(S(=O)(=O)/N=c2\ncccn2C(=O)C(C(F)(F)F)C(F)(F)F)cc1)C(C(F)(F)F)C(F)(F)F | 0.0368 µM (active) | > 100 µM (inactive) | > 100 µM (inactive) | > 100 µM (inactive) | > 100 µM (inactive) | > 100 µM (inactive) | > 100 µM (inactive) | > 100 µM (inactive) | > 100 µM (inactive) | > 100 µM (inactive) | > 100 µM (inactive) | > 100 µM (inactive) | > 100 µM (inactive) | > 100 µM (inactive) | > 100 µM (inactive) | > 100 µM (inactive) | > 100 µM (inactive) | > 100 µM (inactive) | > 100 µM (inactive) | –
13 | Cc1c[nH]c2c(O)cc3c(c12)[C@H](CCl)CN3C(=O)c1cc2cc(NC(=O)Nc3ccc4[nH]c(C(=O)N5C[C@@H](CCl)c6c5cc(O)c5[nH]cc(C)c65)cc4c3)ccc2[nH]1 [BIZELESIN] | 9.16 µM (inactive) | 0.274 µM (active) | 3.65 µM (inactive) | 2.6 µM (inactive) | 0.00288 µM (active) | 19.4 µM (inactive) | 12.1 µM (inactive) | 0.631 µM (active) | 26.5 µM (inactive) | < 0.001 µM (active) | 0.00136 µM (active) | 0.00131 µM (active) | > 100 µM (inactive) | 2.82 µM (inactive) | 1.24 µM (inactive) | 0.141 µM (active) | 0.378 µM (active) | – | 14.6 µM (inactive) | < 0.001 µM (active)
